Consider 17 molecules from patent US7964627B2, “Amino arylsulfonamide compounds and their use as 5-HT6 ligands” (Suven Life Sciences Limited, priority 2007, dated 2011).

Data set [1] concerns the target T1, Human 5-HT6 receptor (Homo sapiens, UniProt P50406).
T1 construct: expressed in transfected cells; host or cells: HEK293 cells
Nature of the data set: Binding assay for human 5-HT6 receptor ([3H]LSD radioligand). The settings on record: human recombinant receptor in HEK293 cells; for inhibition at 0.1 µM: 100 nM test compound, [3H]LSD 1.5 nM, read-out: % Inhibition of specific binding at 100 nM; for Ki: [3H]LSD. The procedure: Compounds can be tested according to the following the procedures.
Receptor source: Human recombinant expressed in HEK293 cells
Radioligand: [^3H]LSD (60-80 Ci/mmol)
Final ligand concentration—[1.5 nM]
Non-specific determinant: Methiothepin mesylate—[0.1 μM]
Reference compound: Methiothepin mesylate
Positive control: Methiothepin mesylate
Reactions were carried out in […] TRIS-HCl (pH 7.4) containing 10 μM MgCl2, 0.5 mM EDTA for 60 minutes at 37° C. The reaction was terminated by rapid vacuum filtration onto glass fiber filters. Radioactivity trapped onto the filters was determined and compared to control values in order to ascertain any interactions of test compound(s) with the cloned serotonin 5-HT6 binding site.
Percent Inhibition of Specific Binding at 100 nM Concentrations
Literature Reference: Monsma F. J. Jr., et al., Molecular Cloning and Expression of Novel Serotonin Receptor with High Affinity for Tricyclic Psychotropic Drugs. Mol. Pharmacol. (43): 320-327 (1993).

The nature of data set [2]: Rodent pharmacokinetic study. In kind it is in vivo, Male wistar rats. The settings on record: plasma, Wistar/Male rat, 10 mg/kg; for AUC(0-t) / Cmax / Tmax / half-life: vehicle water; for bioavailability: Oral vs Intravenous. On the procedure:
Male wistar rats (230-280 grams) obtained from NIN (National Institute of Nutrition, Hyderabad, India) were used as an experimental animal.
Three to five animals were housed in each cage. Animals were kept fasted over night and maintained on a 12 hours light/dark cycle. Three rats were dosed NCE (10 mg/Kg) orally and intravenously on day 0 and day 2.
At each time point blood was collected by jugular vein. Plasma was stored frozen at −20° C. until analysis. The concentrations of the NCE compound in plasma were determined using LC-MS/MS method.
Schedule time points: Pre dose 0.25, 0.5, 1, 1.5, 2, 3, 4, 6, 8, 10, 12 and 24 hours after dosing (n=3). The NCE compounds were quantified in plasma by validated LC-MS/MS method using solid phase extraction technique. NCE compounds were quantified in the calibration range of 2-2000 ng/ml in plasma. Study samples were analyzed using calibration samples in the batch and quality control samples spread across the batch.
Pharmacokinetic parameters Cmax, Tmax, AUCt, AUCinf, half life, volume of distribution, clearance, mean residence time and thereby oral bioavailability were calculated by non-compartmental model using software WinNonlin version 5.1.

Data set [3] is described as follows: Rodent brain penetration study (steady state). It is filed as in vivo, Male Wister rats. The settings on record: Wistar, brain and plasma; Wister/Male rat, 10 mg/kg, Oral, vehicle water; read-out: Steady State Brain Penetration Cb/Cp.
Data set [4] relates to Male Wister rats. Nature of the data set: Object recognition task model (NORT). It is filed as in vivo. The settings on record: p.o.; for NORT Discriminative Index (DI), treatment: vehicle value in brackets in the cell; for NORT Inference: 10 and 30 mg/kg. The procedure: The cognition-enhancing properties of compounds of this invention were estimated using a model of animal cognition: the object recognition task model. Male Wister rats (230-280 grams) obtained from N.I.N. (National Institute of Nutrition, Hyderabad, India) were used as experimental animals. Four animals were housed in each cage. Animals were kept on 20% food deprivation before one day and given water ad libitum throughout the experiment and maintained on a 12 hours light/dark cycle. Also the rats were habituated to individual arenas for 1 hour in the absence of any objects.
One group of 12 rats received vehicle (1 mL/Kg) orally and another set of animals received compound of the formula (I) either orally or i.p., before one hour of the familiar (T1) and choice trial (T2).
The experiment was carried out in a 50×50×50 cm open field made up of acrylic. In the familiarization phase, (T1), the rats were placed individually in the open field for 3 minutes, in which two identical objects (plastic bottles, 12.5 cm height×5.5 cm diameter) covered in yellow masking tape alone (a1 and a2) were positioned in two adjacent corners, 10 cm. from the walls. After 24 hours of the (T1) trial for long-term memory test, the same rats were placed in the same arena as they were placed in T1 trial. Choice phase (T2) rats were allowed to explore the open field for 3 minutes in presence of one familiar object (a3) and one novel object (b) (Amber color glass bottle, 12 cm high and 5 cm in diameter). Familiar objects presented similar textures, colors and sizes. During the T1 and T2 trial, explorations of each object (defined as sniffing, licking, chewing or having moving vibrissae whilst directing the nose towards the object at a distance of less than 1 cm) were recorded separately by stopwatch. Sitting on an object was not regarded as exploratory activity, however, it was rarely observed. T1 is the total time spent exploring the familiar objects (a1+a2). T2 is the total time spent exploring the familiar object and novel object (a3+b).
The object recognition test was performed as described by Ennaceur, A., Delacour, J., 1988, A new one-trial test for neurobiological studies of memory in rats-Behavioral data, Behav. Brain Res., 31, 47-59.

Data set [5] relates to rats. Briefly: Water maze, scopolamine induced reversal. It is filed as in vivo. The note with it: p.o. On the procedure: The water maze apparatus consisted of a circular pool (1.8 m diameter, 0.6 m high) constructed in black Perspex (TSE systems, Germany) filled with water (24±2° C.) and positioned underneath a wide-angled video camera to track animal. The 10 cm^2 perspex platform, lying 1 cm below the water surface, was placed in the centre of one of the four imaginary quadrants, which remained constant for all rats. The black Perspex used in the construction of the maze and platform offered no intramaze cues to guide escape behavior. By contrast, the training room offered several strong extramaze visual cues to aid the formation of the spatial map necessary for escape learning. An automated tracking system, [Videomot 2 (5.51), TSE systems, Germany] was employed. This program analyzes video images acquired via a digital camera and an image acquisition board that determined path length, swim speed and the number of entries and duration of swim time spent in each quadrant of the water maze.

For data set [6], the system named is 5-HT6 receptor. The note with it: literature; cited from earlier work.

T1 sequence (P50406 whole entry): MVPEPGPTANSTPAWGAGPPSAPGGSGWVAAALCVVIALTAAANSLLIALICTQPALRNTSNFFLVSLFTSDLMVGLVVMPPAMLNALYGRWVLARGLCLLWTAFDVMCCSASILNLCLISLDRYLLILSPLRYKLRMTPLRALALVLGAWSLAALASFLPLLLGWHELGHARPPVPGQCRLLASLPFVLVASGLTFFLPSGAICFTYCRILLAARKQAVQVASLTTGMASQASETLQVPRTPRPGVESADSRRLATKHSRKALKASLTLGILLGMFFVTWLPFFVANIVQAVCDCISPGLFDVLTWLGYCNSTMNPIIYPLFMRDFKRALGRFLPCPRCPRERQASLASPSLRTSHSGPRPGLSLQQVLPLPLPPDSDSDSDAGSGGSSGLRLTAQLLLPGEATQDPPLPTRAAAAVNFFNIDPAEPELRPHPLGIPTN

For orientation: inhibition means the share of the control response that was lost under treatment. In the case of `COc1ccc2c(c1)c(C)cn2S(=O)(=O)c1ccc(OC)c(NCCN(C)C)c1` [Example 1, N′-[2-Methoxy-5-(5-methoxy-3-methylindole-1-sulfonyl)phenyl]-N,N-dimethyl ethane-1,2-diamine], the inhibition at 0.1 µM in data set [1] came to 82.9%.
In the case of `COc1ccc2c(c1)c(Cl)cn2S(=O)(=O)c1ccc(OC)c(NCCN(C)C)c1` [Example 2, N′-[5-(3-Chloro-5-methoxyindole-1-sulfonyl)-2-methoxyphenyl]-N,N-dimethyl ethane-1,2-diamine], the inhibition at 0.1 µM in data set [1] amounted to 84.9%.
By Ki is commonly meant a measure of affinity in units of concentration, obtained from inhibition or displacement. With `COc1ccc(S(=O)(=O)n2cc(Cl)c3ccccc32)cc1NCCN(C)C` [Example 3, N′-[5-(3-Chloroindole-1-sulfonyl)-2-methoxyphenyl]-N,N-dimethyl ethane-1,2-diamine], in data set [1], the inhibition at 0.1 µM worked out at 95.6% and the Ki came out at 3.02 nM.
As a reminder, the AUC(0-t) is the area under the concentration-time curve up to a stated or last time point. Read a high AUC(0-t) as high exposure. As usually defined, the Cmax is the maximum level reached in the sampled fluid or tissue. In general, Tmax refers to the time at which the peak concentration occurs. Usually half-life stands for the time needed for the level to fall by half in the phase considered. The term bioavailability denotes the share of a dose that reaches the circulation, judged against a reference dose that is usually intravenous. Higher therefore signals much systemic uptake. Regarding `COc1ccc(S(=O)(=O)n2ccc3ccccc32)cc1NCCN(C)C` [Example 4, N′-[5-(Indole-1-sulfonyl)-2-methoxyphenyl]-N,N-dimethyl ethane-1,2-diamine], in data set [1], the inhibition at 0.1 µM came to 90.5% and the Ki is 1.22 nM. In addition, in data set [2] (Intravenous), the AUC(0-t) is 1870 ± 338 ng·h/mL, the Cmax was 1590 ± 538 ng/mL, the Tmax is 0.08 h and the half-life is 2.93 ± 1.29 h. For the same molecule, the bioavailability in data set [2] was found to be 5 ± 2%. In addition, in data set [2] (Oral), the AUC(0-t) was 88 ± 48 ng·h/mL, the Cmax was found to be 41 ± 19 ng/mL, the Tmax was 0.58 ± 0.38 h and the half-life is 1.95 ± 0.73 h. Further, the Kp in data set [3] was determined as 20.2 ± 1.84.
Consider `COc1ccc(S(=O)(=O)n2cc(C)c3ccccc32)cc1NCCN(C)C` [Example 5, N′-[2-Methoxy-5-(3-methylindole-1-sulfonyl)phenyl]-N,N-dimethyl ethane-1,2-diamine], for which, in data set [4] (10 mg/kg), the “NORT Discriminative Index (DI), treatment” value (“NORT Discriminative Index” below) is recorded as 0.46 (0.52). In addition, the “NORT Discriminative Index” value in data set [4] (30 mg/kg) was 0.58 (0.56). Moreover, the “NORT Inference” value in data set [4] is recorded as “Active”. For the same molecule, in data set [1], the inhibition at 0.1 µM was 93% and the Ki turned out to be 1.52 nM. In data set [2] (Intravenous), the AUC(0-t) stood at 2860 ± 442 ng·h/mL, the highest level (Cmax) was 1960 ± 458 ng/mL, the time of peak concentration (Tmax) stood at 0.08 h and the half-life is 3.37 ± 0.29 h. In data set [2], this molecule displayed a bioavailability of 6 ± 1%. Moreover, in data set [2] (Oral), the AUC(0-t) turned out to be 158 ± 20 ng·h/mL, the Cmax turned out to be 36 ± 8 ng/mL, the Tmax was 1.33 ± 0.58 h and the half-life is 2.27 ± 0.2 h. Further, in data set [3], the Kp came to 13.5 ± 4.28. Moreover, the “Scopolamine Induced Reversal (active dose)” value in data set [5] was “≧3 mg/kg, p.o”.
In the case of `COc1ccc2c(c1)c(C)cn2S(=O)(=O)c1ccc(C)c(NCCN(C)C)c1` [Example 8, N′-[5-(5-Methoxy-3-methylindole-1-sulfonyl)-2-methylphenyl]-N,N-dimethyl ethane-1,2-diamine], the Ki in data set [1] was 17.3 nM.
The same measure, in the same setting: the value for `COc1ccc2c(ccn2S(=O)(=O)c2ccc(C)c(NCCCN(C)C)c2)c1` [Example 9, N′-[5-(5-Methoxyindole-1-sulfonyl)-2-methylphenyl]-N,N-dimethyl propane-1,3-diamine] was 41 nM.
On to `CCc1ccc(S(=O)(=O)n2ccc3cc(F)ccc32)cc1NCCN(C)C` [Example 13, N′-[2-Ethyl-5-(5-fluoroindole-1-sulfonyl)phenyl]-N,N-dimethyl ethane-1,2-diamine], for which the inhibition at 0.1 µM in data set [1] was 70.7%.
For `CCc1ccc(S(=O)(=O)n2cc(C)c3cc(OC)ccc32)cc1NCCN(C)C` [Example 15, N′-[2-Ethyl-5-(5-methoxy-3-methylindole-1-sulfonyl)phenyl]-N,N-dimethyl ethane-1,2-diamine], in data set [1], the inhibition at 0.1 µM was 56.4%.
With `Cc1ccc(S(=O)(=O)n2ccc3ccc(Cl)cc32)cc1NCCN(C)C` [Example 20, N′-[5-(6-Chloroindole-1-sulfonyl)-2-methylphenyl]-N,N-dimethyl ethane-1,2-diamine], the inhibition at 0.1 µM in data set [1] came to 100%.
Same read-out and setting: next, `CN(C)CCNc1cccc(S(=O)(=O)n2ccc3ccc(Cl)cc32)c1` [Example 23, N′-[3-(6-Chloroindole-1-sulfonyl)phenyl]-N,N-dimethyl ethane-1,2-diamine]: 96%.
Same read-out and setting: the value for `CCc1ccc(S(=O)(=O)n2ccc3cc(OC)ccc32)cc1NCCN(C)C` [Example 26, N′-[2-Ethyl-5-(5-methoxyindole-1-sulfonyl)phenyl]-N,N-dimethyl ethane-1,2-diamine] was 76%.
With `COc1ccc(S(=O)(=O)n2cc(C)c3ccccc32)cc1NCCCN(C)C` [Example 31, N′-[2-Methoxy-5-(3-methylindole-1-sulfonyl)phenyl]-N,N-dimethyl propane-1,3-diamine], the “NORT Discriminative Index” value in data set [4] (10 mg/kg) is 0.54 (0.48). For the same molecule, the “NORT Discriminative Index” value in data set [4] (30 mg/kg) is given as 0.52 (0.52). Further, the “NORT Inference” value in data set [4] is “Active”. In data set [1], the Ki was determined as 2.92 nM. In data set [2] (Intravenous), the AUC(0-t) was 3480 ± 650 ng·h/mL, the Cmax was found to be 1730 ± 682 ng/mL, the Tmax was determined as 0.08 h and the half-life is 2.72 ± 0.4 h. Besides, in data set [2], the bioavailability was found to be 19 ± 7%. Further, in data set [2] (Oral), the AUC(0-t) came out at 674 ± 320 ng·h/mL, the Cmax was 140 ± 76.8 ng/mL, the Tmax amounted to 2.33 ± 1.53 h and the half-life was 5.06 ± 3.28 h. In addition, the Kp in data set [3] stood at 3.48 ± 0.27. In addition, in data set [5], the “Scopolamine Induced Reversal (active dose)” value is “≧30 mg/kg, p.o”.
On to `COc1ccc(S(=O)(=O)n2cc(C)c3cc(F)ccc32)cc1NCCCN(C)C` [Example 33, N′-[2-Methoxy-5-(5-fluoro-3-methylindole-1-sulfonyl)phenyl]-N,N-dimethyl propane-1,3-diamine], for which, in data set [1], the Ki was 7.34 nM.
Still for that read-out and setting: next, `COc1ccc2c(c1)c(C)cn2S(=O)(=O)c1ccc(OC)c(NCCCN(C)C)c1` [Example 35, N′-[2-Methoxy-5-(5-methoxy-3-methylindole-1-sulfonyl)phenyl]-N,N-dimethyl propane-1,3-diamine]: 18.9 nM.
Take `CN(C)CCC=C1c2ccccc2CCc2ccccc21` [amitriptyline]: the “Affinity for the 5-HT6 receptor” value in data set [6] was “high affinity”.
Regarding `CN1CCN2c3ccccc3Cc3ccccc3C2C1` (stereo not shown) [mianserin], the “Affinity for the 5-HT6 receptor” value in data set [6] is on record as “high affinity”.
